Experimental data: patent US20160002240A1, “NUCLEOSIDE ANALOG SALTS WITH IMPROVED SOLUBILITY AND METHODS OF FORMING SAME” (THE BOARD OF TRUSTEES OF THE UNIVERSITY OF ALABAMA, priority 2013, published 2016)
Values joined by “and” are separate entries in the source; they are usually repeats but may differ in a detail not shown here. Identical values can stand only once. Like-named read-outs stand apart in the source and are kept apart here. Marks after values point to notes of the source that are not given here.

Tests used:
[1] = cited from earlier work
[2] = Thermogravimetric analysis (thermal stability); type: physicochemical; settings: for T5%onset: Table 4, onset temperature of initial 5 wt % mass loss, nitrogen, 5° C./min
Procedure: TGA experiments were performed on a Mettler Toledo TGA/DSC1 Star unit under a stream of nitrogen. Samples (5-20 mg) were placed on a platinum pan and were heated from 25° C. to 800° C. with a constant heating rate of 5° C./min and with a 30 min isotherm at 75° C. to remove any remaining volatiles. Decomposition temperatures (T5% onset) were reported as the onset temperature with respect to the initial 5 wt % mass loss.

[3] = Solubility in deionized water, UV absorbance at 254 nm with calibration curve
Procedure: The UV-VIS spectra used for development of calibration curves and for determination of the solubility values were performed on a Varian CARY 3 UV-Visible Spectrophotometer.
After filtering through Teflon syringe filters 0.2 μm), UV was used to determine the absorbance at 254 nm. A calibration curve of the compound in water was used to determine the concentration.
In a vial, 5.500 g [Cho][Acy] was mixed with 2 mL DI H2O.
(§1) A calibration curve of the compound in water was used to determine the concentration.
In a vial, 0.500 g [N1,1,1,16][Acy] was suspended in 1 mL DI H2O. The mixture was stirred for 24 h at room temperature. […] After filtering through a Teflon syringe filter (0.2 μm), 0.1 mL solution was diluted to 25 mL with DI H2O and its absorbance at 254 nm was determined.
as §1
In a vial, 4.8 g [P4,4,4,4][Acy] was suspended in 2 mL DI H2O. The mixture was stirred for 24 h at room temperature.
In a vial, 0.150 g [Acy]HCl was suspended in 1 mL DI H2O. The mixture was stirred for 24 h at room temperature. […] After filtering, 0.1 mL solution was diluted to 25 mL with DI H2O and its absorbance was determined.
In a vial, 0.2 g [Acy][Doc] was suspended in 1.5 mL DI H2O. […] To about 0.3 mL of this emulsion, water was added dropwise (mixing well each time after water was added) until a more clear mixture was obtained. […] The mixture was sonicated for about 30 min; this process (add water, sonication) was repeated until a clear solution was obtained. 0.5 mL of the clear solution obtained was diluted to 50 mL with DI H2O and UV was used to determine the absorbance at 254 nm.
as §1

[4] = Solubility in simulated biological fluids (PBS, SIF, SGF); settings: for Solubility in PBS (pH = 7.4): phosphate buffer saline pH 7.4
Procedure: For all solvents used (water, Phosphate Buffer Solution (PBS), Simulated Gastric Fluid (SGF), Simulated Intestinal Fluid (SIF)) same amount of compound/solvent was used: 0.1 g compound/0.5 mL solvent. The solutions were stirred at room temperature for 24 h. The resulting suspensions were filtered through a 0.2 μm Teflon syringe filter to obtain clear solutions. […] Deuterated dmso (dmso-d6) containing 0.05% (v/v) TMS (as internal standard) was used to run the ^1H-NMR. 0.1 mL of the filtered solutions were combined with 0.4 mL dmso-d6 w/ 0.05% (v/v) TMS (corresponding to 1.836×10-6 mols TMS). The solubility values were determined from the molar ratio between the peaks corresponding to the compound and TMS.
Solubility experiments were conducted as described in example 12.

[5] = at 25° C.; cited from earlier work
[6] = quantitative NMR, room temperature, 24 h
[7] = simulated intestinal fluid pH 6.8 without pancreatin, quantitative NMR

Row | Compound | T5%onset [2] | Water solubility [3] | Water solubility mg/mL (g/L) [3] | Water solubility mol/L [3] | other results
1 | Nc1nc2c(ncn2COCCO)c(=O)[nH]1 [Acyclovir, reference compound] | 240 °C | 1.42 mg/mL | 1.42 mg/mL (g/L) | 0.0063 (0) mol/L | Oral bioavailability [1]: 10-20%; Solubility in PBS (pH = 7.4) ([4]; determined using UV-Vis): 1.4^b mg ‘acyclovir’/mL; Solubility in PBS (pH = 7.4) [4, 6]: 1.5 mg ‘acyclovir’/mL; Solubility in SIF (pH = 6.8) [4, 7]: 2.22 mg ‘acyclovir’/mL; Water solubility, literature value [5]: 5.77 mM
2 | acyclovir docusate [[H2Acy][Doc] (7)] | – | – | – | – | Stability of emulsion in water [3]: at least 48 h
3 | Cl.Nc1nc2c(ncn2COCCO)c(=O)[nH]1 [[H2Acy]Cl (6), acyclovir hydrochloride] | 156 °C | – | – | – | Solubility in SGF (pH = 1.2) ([4]; pH 1.2): 292.8 mg ‘acyclovir’/mL; Solubility in SIF (pH = 6.8) ([4]; pH 6.8): 167.0 mg ‘acyclovir’/mL
4 | Nc1nc2c(ncn2COCCO)c(=O)[nH]1 [[N4,4,4,1][Acy] (2)] [tributylmethylammonium acyclovir] | 115 °C | – | – | – | –
5 | Nc1nc2c(ncn2COCCO)c(=O)[nH]1 [[H2Acy][Doc] (7)] [acyclovir docusate] | 122 °C | 8.48 mg/mL | 8.47 mg/mL (g/L) | 0.0131 (0) mol/L | Solubility in deionized water, average [3]: 8.46 mg/mL; Solubility in deionized water, single determination ([3]; room temperature, stirred 24 h (acyclovir overnight), individual replicate (1st, 2nd, 3rd)): 13.06 mM and 13.05 mM; Solubility in deionized water, average ([3]; room temperature, average of replicates, text of Examples): 13.06 mM
6 | CC(C)[C@H](N)C(=O)OCCOCn1cnc2c(=O)[nH]c(N)nc21 [valacyclovir] | – | – | – | – | Oral bioavailability [1]: about 55%
7 | Nc1nc2c(ncn2COCCO)c(=O)[nH]1 [[P4,4,4,4][Acy] (4)] [tetrabutylphosphonium acyclovir] | 221 °C | 803.89 mg/mL | 803.89 mg/mL (g/L) | 1.6622 (41) mol/L | T5% onset (onset for 5% decomposition from TGA) [2]: 221 °C
8 | Nc1nc2c(ncn2COCCO)c(=O)[nH]1 [[Cho][Acy] (1)] [choline acyclovir] | 128 °C | 1019.42 mg/mL | 1019.42 mg/mL (g/L) | 3.1045 (81) mol/L | –
9 | Nc1nc2c(ncn2COCCO)c(=O)[nH]1 [[N4,4,4,4][Acy] (5)] [tetrabutylammonium acyclovir] | 132 °C | – | – | – | Solubility in PBS (pH = 7.4) [4, 6]: 1.0 mg ‘acyclovir’/mL; Solubility in SIF (pH = 6.8) [4, 7]: 144.0 mg ‘acyclovir’/mL
10 | Nc1nc2c(ncn2COCCO)c(=O)[nH]1 [[N1,1,1,16][Acy] (3)] [trimethylhexadecylammonium acyclovir] | 150 °C | 252.18 mg/mL | 252.18 mg/mL (g/L) | 0.4957 (4) mol/L | –
